Measured values from patent US10780099B2, “Injectable neurosteroid formulations containing nanoparticles” (MARINUS PHARMACEUTICALS, INC., priority 2015, dated 2020).
Like-named read-outs stand apart in the source and are kept apart here.

Tests used:
[1] = cited from earlier work

Row | SMILES | half-life ([1]; human plasma) | half-life ([1]; human plasma following oral administration) | Tmax ([1]; in vivo) | solubility (Solubility in water)
1 | CC(=O)[C@H]1CC[C@H]2[C@@H]3CC[C@H]4C[C@H](O)CC[C@]4(C)[C@H]3CC[C@]12C [Allopregnanolone, 3α,5α-tetrahydroprogesterone] | about 45 minutes |  |  | 
2 | CC(=O)[C@H]1CC[C@H]2[C@@H]3CC[C@H]4C[C@](C)(O)CC[C@]4(C)[C@H]3CC[C@]12C [Ganaxolone, 3α-hydroxy, 3β-methyl-5α-pregnan-20-one] |  | approximately 20 hours | short | < 1 µg/mL
